The record followed here is ChEMBL document CHEMBL1201862, “PubChem BioAssay data set” (2004).

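Dose response: 5 concentrations. Exposure: 48 h. Format: 96-well plates. Endpoint: linear interpolation; highest concentration if not reached. Here, GI50 denotes the concentration required for 50% inhibition of growth.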 Activity calls are given as the source filed them. No stated cut-off is given here; in the data, active = GI50 up to about 1.1 µM and inactive = higher. Where only a bound is given, the exact number is not on record here.

Among the test systems are RPMI-8226; SK-MEL-28; NCI-H226; SN12C; K562; CCRF-CEM; SW-620; TK-10; OVCAR-4; SK-MEL-2; UO-31; HOP-92; NCI-H23; MDA-MB-231; SF-268; DU-145; SK-OV-3; OVCAR-3; COLO 205; MOLT-4.
Holding throughout (assay): NCI anticancer screen, dose series, 48 h

Regarding `Cc1ccc(C(=N)Nc2ccccc2)cc1`, the GI50 is > 100 µM (inactive) in the experiment on RPMI-8226; > 100 µM (inactive) with SK-MEL-28; > 100 µM (inactive) with NCI-H226; > 100 µM (inactive) in the experiment on SN12C; > 100 µM (inactive) in the experiment on K562; 52.2 µM (inactive) in the experiment on CCRF-CEM. Also, the GI50 with SW-620, with TK-10, in the experiment on OVCAR-4, in the experiment with SK-MEL-2, in the experiment on UO-31 and in the experiment on HOP-92 was > 100 µM (inactive) throughout. The GI50 with NCI-H23, with MDA-MB-231, in the experiment with SF-268, with DU-145, with SK-OV-3 and in the experiment with OVCAR-3 was > 100 µM (inactive) each time. For the same compound, the results for the GI50 in the experiment on COLO 205 and in the experiment with MOLT-4 were 20.9 µM (inactive) and > 100 µM (inactive), respectively.
`CC1OC(=O)C2CC3CCCCC3C(/C=C/C3CCCC(C)N3C)C12` (stereo not given): the GI50 in the experiment on RPMI-8226, in the experiment on SK-MEL-28, in the experiment with NCI-H226, with SN12C, in the experiment with K562 and in the experiment with CCRF-CEM was > 100 µM (inactive) throughout. Moreover, the GI50 was > 100 µM (inactive) in the experiment with SW-620; > 100 µM (inactive) in the experiment on TK-10; > 100 µM (inactive) with OVCAR-4; 83.2 µM (inactive) in the experiment on SK-MEL-2; > 100 µM (inactive) with UO-31; > 100 µM (inactive) in the experiment on HOP-92. For the same compound, the GI50 in the experiment on NCI-H23, with MDA-MB-231, in the experiment with SF-268, with DU-145, with SK-OV-3 and with OVCAR-3 was > 100 µM (inactive) in each case. In addition, the GI50 in the experiment on COLO 205 and in the experiment on MOLT-4 was > 100 µM (inactive) throughout.
For the compound `O=C1c2cc([N+](=O)[O-])cc3cc([N+](=O)[O-])cc(c23)C(=O)N1CCCNCCNCCCN1C(=O)c2cc([N+](=O)[O-])cc3cc([N+](=O)[O-])cc(c23)C1=O`, the GI50 in the experiment with RPMI-8226 is < 0.0114 µM (active); with SK-MEL-28, 0.233 µM (active); in the experiment on NCI-H226, 0.0641 µM (active); with SN12C, 0.0366 µM (active); in the experiment on K562, < 0.0167 µM (active); in the experiment on CCRF-CEM it was < 0.015 µM (active). Further, the GI50 in the experiment with SW-620 was 0.073 µM (active); in the experiment on TK-10 it was 1.19 µM (inactive); in the experiment with OVCAR-4, 0.178 µM (active); in the experiment on SK-MEL-2 it was 0.124 µM (active); in the experiment on UO-31, 0.375 µM (active); with HOP-92, 0.337 µM (active). Also, the GI50 in the experiment with NCI-H23 was 0.0931 µM (active); in the experiment on MDA-MB-231, 0.414 µM (active); in the experiment on SF-268 it was 0.0222 µM (active); in the experiment on DU-145, 0.453 µM (active); with SK-OV-3, 1.79 µM (inactive); in the experiment on OVCAR-3, 0.0897 µM (active). In addition, the results for the GI50 with COLO 205 and with MOLT-4 were 0.041 µM (active) and < 0.01 µM (active), respectively.
Consider `COc1ccc(NC(C)=O)cc1C1CCC(=O)N1` (stereo not given), for which the GI50 in the experiment on RPMI-8226, in the experiment with SK-MEL-28, in the experiment on NCI-H226, in the experiment on SN12C, in the experiment on K562 and with CCRF-CEM was > 100 µM (inactive) each time. The GI50 in the experiment on SW-620, with TK-10, in the experiment on OVCAR-4, with SK-MEL-2, in the experiment on UO-31 and in the experiment with HOP-92 was > 100 µM (inactive) throughout. The GI50 in the experiment with NCI-H23, in the experiment with MDA-MB-231, in the experiment on SF-268, in the experiment on DU-145, in the experiment on SK-OV-3 and in the experiment with OVCAR-3 was > 100 µM (inactive) in each case. The GI50 in the experiment on COLO 205 and in the experiment on MOLT-4 was > 100 µM (inactive) each time.
Consider `O=C1/C(=C/c2ccc(O)cc2)NC(=S)N1CN1CCCCC1`, for which the GI50 is 28.6 µM (inactive) in the experiment with RPMI-8226; > 100 µM (inactive) in the experiment with SK-MEL-28; 78.3 µM (inactive) in the experiment on NCI-H226; 80 µM (inactive) with SN12C; 72.6 µM (inactive) with K562; 23.8 µM (inactive) in the experiment on CCRF-CEM. In addition, the GI50 is 36.6 µM (inactive) in the experiment with SW-620; 94 µM (inactive) in the experiment on TK-10; 53.3 µM (inactive) in the experiment with OVCAR-4; > 100 µM (inactive) with SK-MEL-2; 71.4 µM (inactive) with UO-31; 54.6 µM (inactive) in the experiment with HOP-92. Besides, the GI50 in the experiment with NCI-H23 was > 100 µM (inactive); in the experiment with MDA-MB-231, > 100 µM (inactive); in the experiment with SF-268, 89.1 µM (inactive); in the experiment on DU-145 it was 57.1 µM (inactive); in the experiment with SK-OV-3 it was > 100 µM (inactive); in the experiment with OVCAR-3 it was > 100 µM (inactive). Moreover, the GI50 with COLO 205 is 21 µM (inactive); with MOLT-4, 62.7 µM (inactive).
Consider `COC(=O)c1ccc2cc(O)c(O)cc2c1`, for which the GI50 in the experiment with RPMI-8226 was 29.4 µM (inactive); with SK-MEL-28 it was 46.9 µM (inactive); in the experiment on NCI-H226 it was 38.9 µM (inactive); in the experiment with SN12C it was 55.2 µM (inactive); in the experiment with K562 it was 33.9 µM (inactive); with CCRF-CEM, 18.9 µM (inactive). Also, the GI50 is 51.4 µM (inactive) with SW-620; 27.9 µM (inactive) in the experiment with TK-10; 43.6 µM (inactive) in the experiment with OVCAR-4; 39.5 µM (inactive) in the experiment on SK-MEL-2; 17.4 µM (inactive) in the experiment on UO-31; 32.5 µM (inactive) with HOP-92. In addition, the GI50 in the experiment on NCI-H23 was 26.5 µM (inactive); in the experiment on MDA-MB-231, 60.7 µM (inactive); in the experiment with SF-268, 16.6 µM (inactive); with DU-145 it was 53.2 µM (inactive); with SK-OV-3 it was 70.8 µM (inactive); with OVCAR-3, 31.1 µM (inactive). For the same compound, the GI50 is 37.9 µM (inactive) with COLO 205 and 15.5 µM (inactive) with MOLT-4.
`O=S(=O)(O)c1cc(S(=O)(=O)O)c2c(/N=N/c3ccc(/N=N/c4ccccc4)cc3)c(O)ccc2c1`: the GI50 in the experiment on RPMI-8226, in the experiment on SK-MEL-28, with NCI-H226, in the experiment on SN12C, in the experiment on K562 and in the experiment on CCRF-CEM was > 100 µM (inactive) each time. Further, the GI50 in the experiment on SW-620, in the experiment with TK-10, in the experiment with OVCAR-4, in the experiment with SK-MEL-2, in the experiment on UO-31 and in the experiment on HOP-92 was > 100 µM (inactive) in each case. Moreover, the GI50 in the experiment with NCI-H23, with MDA-MB-231, in the experiment on SF-268, in the experiment on DU-145, in the experiment on SK-OV-3 and in the experiment on OVCAR-3 was > 100 µM (inactive) throughout. In addition, the GI50 in the experiment with COLO 205 and with MOLT-4 was > 100 µM (inactive) in each case.
In the case of `COc1ccc(N2CN3OC(=O)N(c4ccc(OC)cc4)[C@@]3(c3ccccc3)C2)cc1`, the GI50 is 18.7 µM (inactive) with RPMI-8226; 34.5 µM (inactive) with SK-MEL-28; 47.6 µM (inactive) in the experiment with NCI-H226; 31.6 µM (inactive) with SN12C; 4.02 µM (inactive) in the experiment on K562; 6 µM (inactive) with CCRF-CEM. For the same compound, the GI50 is 6.04 µM (inactive) with SW-620; 30.8 µM (inactive) with TK-10; 20.3 µM (inactive) with OVCAR-4; 5.51 µM (inactive) with SK-MEL-2; 32.9 µM (inactive) in the experiment on UO-31; 15.9 µM (inactive) with HOP-92. The GI50 was 23.6 µM (inactive) in the experiment with NCI-H23; 10 µM (inactive) in the experiment with MDA-MB-231; 73.6 µM (inactive) in the experiment on SF-268; 81.5 µM (inactive) in the experiment with DU-145; 20.8 µM (inactive) with SK-OV-3; 13.1 µM (inactive) with OVCAR-3. In addition, the GI50 was 13.4 µM (inactive) in the experiment on COLO 205 and 7.23 µM (inactive) in the experiment with MOLT-4.
On to `Cc1ccc(S(=O)(=O)N2C[C@@H]3CC[C@]4(CO[Si](C)(C)C(C)(C)C)N[C@@H](c5ccccc5)[C@H]2[C@H]34)cc1`, for which the GI50 in the experiment on RPMI-8226 is 7.87 µM (inactive); with SK-MEL-28, > 100 µM (inactive); with NCI-H226 it was 14.4 µM (inactive); in the experiment with SN12C it was 19.6 µM (inactive); in the experiment with K562 it was 9.02 µM (inactive); in the experiment with CCRF-CEM, 43.2 µM (inactive). Further, the GI50 in the experiment on SW-620 is 47.3 µM (inactive); with TK-10 it was 38.5 µM (inactive); with OVCAR-4, 26.5 µM (inactive); with SK-MEL-2, 48.2 µM (inactive); in the experiment on UO-31, 33 µM (inactive); in the experiment on HOP-92, 3.44 µM (inactive). The GI50 with NCI-H23 is 11.4 µM (inactive); in the experiment on MDA-MB-231, 28.1 µM (inactive); with SF-268, 45.7 µM (inactive); with DU-145, 45 µM (inactive); with SK-OV-3 it was 68.1 µM (inactive); with OVCAR-3, 32 µM (inactive). Besides, the GI50 was 17.6 µM (inactive) in the experiment on COLO 205 and 19 µM (inactive) in the experiment on MOLT-4.
`O=[N+]([O-])c1cccc2nccc(NCCN3CCOCC3)c12`: the GI50 in the experiment on RPMI-8226 is 7.94 µM (inactive); in the experiment with SK-MEL-28 it was 17.9 µM (inactive); with NCI-H226 it was 10.2 µM (inactive); with SN12C, 16.3 µM (inactive); with K562 it was 11.8 µM (inactive); with CCRF-CEM, 5.55 µM (inactive). The GI50 with SW-620 was 8.91 µM (inactive); in the experiment on TK-10, 23.7 µM (inactive); in the experiment with OVCAR-4, 8.99 µM (inactive); in the experiment on SK-MEL-2, 14.7 µM (inactive); in the experiment on UO-31 it was 27.2 µM (inactive); with HOP-92, 33.2 µM (inactive). The GI50 with NCI-H23 is 11.7 µM (inactive); in the experiment with MDA-MB-231 it was 21.7 µM (inactive); in the experiment with SF-268, 20.5 µM (inactive); in the experiment with DU-145, 41.7 µM (inactive); in the experiment with SK-OV-3 it was 35.2 µM (inactive); in the experiment with OVCAR-3 it was 14.2 µM (inactive). The values for the GI50 in the experiment with COLO 205 and with MOLT-4 were 19.6 µM (inactive) and 8.43 µM (inactive), respectively.
